Consider six molecules from PMC8416020 (eLife, 2021).

Test [1] addresses GHSR (Homo sapiens) (UniProt Q92847). The experiment in a line: FRET. The settings on record: cited from earlier work.
For test [2] the target is unchanged. As to conditions: cited from earlier work.
For the next test, the target named is GHSR1a (Homo sapiens) (UniProt Q92847). As to conditions: cited from earlier work.
Test [3] concerns the target GHSR (Homo sapiens) (UniProt Q92847). As to the kind of experiment: 125I-ghrelin radioligand binding. The settings on record: cited from earlier work.
Test [4] has as its system GHSR. The settings on record: ref M'Kadmi et al., 2015; cited from earlier work.
The subject of the next test is 7H4MC-labeled GHSR. As to the kind of experiment: Hydration parameter H from 7H4MC fluorescence emission, several positions together. Format: biochemical, human. The settings on record: any of the positions considered; saturating ligand (10 µM). The source says: (§1) We then investigated whether the fluorescence properties of 7H4MC-ethylglycine could report on the local hydration features of GHSR. To this end, we analyzed the 7H4MC emission profile for each of the positions considered. An excitation wavelength of 320 nm was systematically used to excite the neutral form of the fluorophore ([Amaro et al., 2015]). The emission spectra were deconvoluted into their separate components using the procedure initially described ([Amaro et al., 2015]). A hydration parameter H was then determined that corresponded to the sum of the contributions of the anionic and tautomer forms. This parameter is an indicator of the extent of hydration at the position considered, as the higher the H parameter the higher local hydration ([Amaro et al., 2015]). A difference in the H parameter inferred for the 7H4MC probe at the different positions of the apo GHSR was observed depending on the position considered (Figure 2—figure supplement 1, 2).
Figure 2. Local hydration of growth hormone secretagogue receptor (GHSR) as a function of ligands. […] All ligands were used at a 10 µM concentration. […] The spectra were recorded in the absence of ligand. […] The excitation wavelength was set to 320 nm with an emission intensity recorded between 340 and 600 nm. […] The excitation wavelength was set to 320 nm with an emission intensity recorded between 340 and 600 nm. […]

In another test the test system is isolated GHSR. As to conditions: ref Mary et al., 2012; Damian et al., 2015; cited from earlier work. The source says: We then used 7H4MC fluorescence to monitor the impact of ligand binding on the hydration pattern of GHSR.
In test [5] the test system is GHSR labeled with 7H4MC-ethylglycine at Y232^5.58. As to the kind of experiment: Hydration parameter H from 7H4MC fluorescence emission. The test is classed as biochemical, human. As to conditions: for H parameter: 5.58, ligand 10 µM, POPC:POPG nanodiscs, 15°C, ex 320 nm.
Description: as §1
(§2) Figure 2. Local hydration of growth hormone secretagogue receptor (GHSR) as a function of ligands. […] All ligands were used at a 10 µM concentration. In all cases, the data represents the mean value ± SD of three experiments. Statistical analyses are provided in […]—figure supplement 2 and 4. Figure 2—source data 1. H parameter for GHSR and its mutants. Figure 2—figure supplement 1. Emission spectra of L-(7-hydroxycoumarin-4-yl) (7H4MC)-ethylglycine incorporated into isolated growth hormone secretagogue receptor (GHSR). The spectra were recorded in the absence of ligand. The labeling positions are given in a snake-like plot of GHSR ([Shiimura et al., 2020]) (A) (red: positions deleterious to GHSR function; green: positions considered in this work), and then indicated in each panel (B–F). The excitation wavelength was set to 320 nm with an emission intensity recorded between 340 and 600 nm. The gray curve represents the experimental emission spectrum (exp). The red, blue, green, and magenta spectra represent the decomposition of the experimental spectrum into its neutral (N), complexed (C), anionic (A), and tautomeric (T) components, respectively. The orange curve (fit) corresponds to sum of the individual N, C, A, and T curves. Figure 2—figure supplement 1—source data 1. 7-H4MC emission intensity of the apo GHSR mutants. [drawing 7] Figure 2—figure supplement 2. Statistical analysis of the data in Figure 2. […] Data is from Figure 2. […] Structure of the ligands used throughout this work. [drawing 9] Figure 2—figure supplement 4. Statistical analysis of the data in Figure 2. The left panels show the hydration parameter for each of the mutants in the absence or in the presence of ligands. Data are from Figure 2. The right panels show the mean difference between the apo and the ligand-loaded states for each of the mutants with multiplicity-adjusted 95% confidence intervals. [drawing 10] Figure 2—figure supplement 5. Emission spectra of L-(7-hydroxycoumarin-4-yl) (7H4MC)-ethylglycine incorporated at position 5.58 of growth hormone secretagogue receptor (GHSR) in the presence of pharmacologically distinct ligands or phosphatidylinositol-4,5-bisphosphate (PIP2). […] The excitation wavelength was set to 320 nm with an emission intensity recorded between 340 and 600 nm. The black curve represents the experimental emission spectrum (exp). The red one (fit) corresponds to sum of the individual curves after decomposition of the experimental spectrum into its neutral, complexed, anionic, and tautomeric components. Figure 2—figure supplement 5—source data 1. 7-H4MC emission intensity of the GHSR 5.58 mutant in the presence of ligands. [drawing 11] Figure 2—figure supplement 6. […]

Test [6] deals with GHSR labeled with 7H4MC-ethylglycine at S315^7.45. The test is described as above. The test is classed as biochemical, human. As to conditions: ligand 10 µM, POPC:POPG nanodiscs, 15°C, ex 320 nm.
Description: as §1, §2

Test [7] deals with GHSR labeled with 7H4MC-ethylglycine at F272^6.44. The test is described as above. The test is classed as biochemical, human. The settings on record: for H parameter: 6.44, ligand 10 µM, POPC:POPG nanodiscs, 15°C, ex 320 nm.
Description: as §1, §2

Test [8] deals with GHSR labeled with 7H4MC-ethylglycine at I134^3.43. Described as above. The test is classed as biochemical, human. The settings on record: ligand 10 µM, POPC:POPG nanodiscs, 15°C, ex 320 nm.
Description: as §1, §2

The test system of test [9] is GHSR labeled with 7H4MC-ethylglycine at V268^6.40. The test is described as above. The test is classed as biochemical, human. As to conditions: 6.4, ligand 10 µM, POPC:POPG nanodiscs, 15°C, ex 320 nm.
Description: as §1, §2

Another test deals with neurotensin receptor 1. As to conditions: ref Yen et al., 2018; cited from earlier work. The source says: (§3) In addition to ligands, other components in the receptor environment allosterically impact on GPCR activation and conformational dynamics. […] Among the lipids reported to affect GPCR signaling such as cholesterol ([Casiraghi et al., 2016]; [Zocher et al., 2012]) or charged phospholipids ([Strohman et al., 2019]; [Daw ...

A further test deals with ghrelin receptor. As to conditions: ref Damian et al., 2021; cited from earlier work.
Description: as §3

For another test, the system named is adenosine A2a receptor. The settings on record: ref Yen et al., 2018; cited from earlier work.
Description: as §3

The subject of another test is β1-adrenergic receptor. The settings on record: ref Yen et al., 2018; cited from earlier work.
Description: as §3

Test [10] deals with GHSR. As to conditions: ref Ferré et al., 2019; cited from earlier work. On the procedure: For labeling with 7H4MC-ethylglycine, the TAG amber codon was introduced at the positions indicated in Figure 1A by site-directed mutagenesis with the pET21a expression vector encoding human GHSR fused to the α5 integrin ([Damian et al., 2012]). The UAA solution was prepared by dissolving 263 mg of 7H4MC-ethylglycine in 10 mL 200 mM KOH solution and filter-sterilizing. […] Cultures were grown at 37°C ...

Test [11] concerns the target T1, GHSR (Homo sapiens, UniProt Q92847).
T1 chain: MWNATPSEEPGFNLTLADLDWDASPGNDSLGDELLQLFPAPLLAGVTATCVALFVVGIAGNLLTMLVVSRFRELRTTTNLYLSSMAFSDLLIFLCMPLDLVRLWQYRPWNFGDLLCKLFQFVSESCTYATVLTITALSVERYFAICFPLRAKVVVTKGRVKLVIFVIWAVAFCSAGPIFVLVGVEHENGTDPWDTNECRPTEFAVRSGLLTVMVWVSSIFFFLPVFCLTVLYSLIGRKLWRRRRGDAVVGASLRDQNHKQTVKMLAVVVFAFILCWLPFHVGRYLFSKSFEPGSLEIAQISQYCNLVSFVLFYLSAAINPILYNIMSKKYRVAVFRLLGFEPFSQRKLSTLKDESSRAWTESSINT
The experiment in a line: FRET.

Setting [12] is: saturating ligand (10 µM), vs apo.
Setting [13] is: 2.5% PIP2 in nanodiscs, 10 µM ghrelin.

Several values for one entry are separate records, joined by “and”; a condition that tells them apart may be missing. Identical values can stand only once. Like-named read-outs stand apart in the source and are kept apart here.

One may read the Ki as the dissociation constant of the complex between target and ligand, obtained from inhibition or displacement. In general, Kd refers to a measure of binding affinity in units of concentration. In the case of ghrelin (from UniProt Q9UBU3), the Ki with GHSR (Homo sapiens) [1] was 4.6 nM. The equilibrium dissociation constant (Kd) was 12.5 nM with GHSR (Homo sapiens) [2]; 0.4 nM with GHSR1a (Homo sapiens); 4.4 nM and 2.3 nM with GHSR (Homo sapiens) [3].
As for `COc1ccc(Cn2c(CCc3c[nH]c4ccccc34)nnc2C(Cc2c[nH]c3ccccc23)NC(=O)c2ccccn2)c(OC)c1` (stereo not shown) [JMV3011], the pharmacological class entry in the test on GHSR [4] was “neutral antagonist”. Moreover, the “change in the hydration parameter upon binding” value in the test on 7H4MC-labeled GHSR is “not accompanied by a measurable change in the hydration parameter”. In addition, in the test on isolated GHSR, the “change in the conformation of isolated GHSR” value is reported as “not associated with any change in the conformation of isolated GHSR”. In addition, the H parameter turned out to be 24.19 in test [5] (replicate 1); 26.01 in test [5] (replicate 2); 26.56 in [5] (replicate 3); 21.2 in test [6] (replicate 1); 22.69 in test [6] (replicate 2); 23.47 in [6] (replicate 3). For the same molecule, the H parameter in test [7] (replicate 1) turned out to be 34.06; in [7] (replicate 2), 36.74; in [7] (replicate 3) it was 35.98; in test [8] (replicate 1), 62.25; in [8] (replicate 2), 63.97; in [8] (replicate 3), 62.73. Further, the H parameter was 64.53 in [9] (replicate 1), 63.48 in [9] (replicate 2) and 65.36 in [9] (replicate 3).
Turning to `COc1ccc(Cn2c(CCc3ccccc3)nnc2[C@@H](Cc2c[nH]c3ccccc23)NC(=O)c2ccccn2)c(OC)c1` [JMV3002], the “Gi activation and arrestin recruitment” value in the test on GHSR [4] was “triggers neither Gi activation nor arrestin recruitment”. In the test with GHSR [4], the pharmacological class entry was “Gq-biased partial agonist”. For the same molecule, the H parameter in test [5] (replicate 1) is listed as 26.59; in test [5] (replicate 2), 27.63; in test [5] (replicate 3) it was 28.26; in [6] (replicate 1), 21.56; in [6] (replicate 2), 20.44; in [6] (replicate 3) it was 18.97. Besides, the H parameter was found to be 24.24 in [7] (replicate 1); 22.63 in [7] (replicate 2); 23.15 in test [7] (replicate 3); 67.89 in [8] (replicate 1); 65.22 in test [8] (replicate 2); 66.89 in [8] (replicate 3). Further, the H parameter in [9] (replicate 1) is reported as 66.83; in [9] (replicate 2) it was 65.42; in [9] (replicate 3), 67.29. Besides, the “change in the hydration parameter at position 5.58 upon binding” value in test [5] (setting [12]) was “no change was observed for the probe at position 5.58”. Also, the “change in the hydration parameter at position 6.44 upon binding” value in test [7] (setting [12]) is “decrease in the hydration parameter at position 6.44”.
On to “phosphatidylinositol-4,5-bisphosphate [PIP2]”, for which the “stabilization of the receptor:G protein complex” value in the test with neurotensin receptor 1, with adenosine A2a receptor and in the test with β1-adrenergic receptor was “stabilize the receptor:G protein complex” throughout. Further, the “effect on ghrelin signaling” value in the test with ghrelin receptor is on record as “allosteric regulator of ghrelin signaling”. In test [5] (setting [13]), the “effect of adding PIP2 on the H parameter for position 5.58” value is listed as “increased the H parameter for position 5.58”. In test [7] (setting [13]), the “effect of adding PIP2 on the H parameter for position 6.44” value is on record as “decreased that for position 6.44”.
Take JMV2959: the “pharmacological class (affinity chromatography ligands)” value in the test on GHSR [10] is on record as “antagonist”.

B1: ghrelin (peptide)
chain: GSSFLSPEHQRVQQRKESKKPPAKLQP
The molecule B1 came in with an inhibitory constant (Ki) with GHSR [11] of 77 nM.
